Assay results as given in US10125144B2, “Rho kinase inhibitors” (Kadmon Corporation, LLC, priority 2013, dated 2018).
Values joined by “and” are separate entries in the source; they are usually repeats but may differ in a detail not shown here. Identical values can stand only once. “Also recorded” adds a separate entry of the source. Like-named read-outs stand apart in the source and are kept apart here. Blank lines part the entries; values can stand above or below the molecule they belong to.

Assays:
CD4+ human T cells = assay: cytokine secretion by CD4+ human T cells stimulated with anti-CD3/CD28; format: cell-based
Text: Activation of resting T cells, resulting in cytokine secretion and proliferation, involves two distinct signals from antigen-presenting cells (APCs), mimicked by co-stimulation of the T cell receptor (TCR)/CD3 complex and the CD28 receptor. […] Under the same conditions, the inhibition of IFN-γ and IL-2 was not observed (FIG. 2).

[1] = system: experimental autoimmune encephalomyelitis (EAE); assay: experimental autoimmune encephalomyelitis (EAE) in mice; format: in vivo; conditions: C57BL/6 mice, MOG35-55 in CFA, 150 mg/kg QD or BID
ROCK1 = ROCK1 (Homo sapiens (Human), UniProt Q13464); assay: Invitrogen Z'-LYTE kinase assay, ROCK1 inhibition; format: biochemical; conditions: 5 uM ATP
Text: (§1) Dose response curves for Rho-kinase inhibition were derived from a Invitrogen Z′-LYTE™ Kinase Assay Kit (Invitrogen catalog number PV3793). Purified active ROCK1 and ROCK2 were obtained from Invitrogen (catalog numbers ROCK1, PV3691 and ROCK2, PV3759). The kit components include a coumarin and fluorescein labeled peptide based on myosin light chain 2 ([sequence]), a proprietary protease containing development reagent and a proprietary Stop buffer used to terminate the development reaction. The inhibitory activities of compounds are measured according to the manufactures protocol. Briefly, decreasing concentrations of test compounds or the known ROCK inhibitor Y-27963, are added, from 10 uM to 2.56×10^−5 uM to reaction buffer containing 50 mM HEPES pH 7.5, 10 mM MgCl2, 5 mM EGTA, and 0.05% Brij-35 and of ROCK1 at 0.18 ug/mL or ROCK2 at 0.8 ug/mL in assay dilution buffer. This mixture is overlayed into a white 96-well half area plate and the reaction is initiated with the addition of 5 uM ATP for ROCK1 or 12 uM ATP for ROCK2. The assay proceeds at room temperature for 1 hour followed by the addition of development reagent, and further incubation for 1 hour at room temperature. STOP reagent is then added and the reaction and immediately the coumarin and fluorescein emission signals are read on a Tecan Infinite M1000 fluorescence plate reader (excitation: 400 nm; emission 445 and 520 nm, respectively). By comparing the emission ratios of the test samples against control samples, percent phosphorylation values are calculated and the concentration of inhibitor that produces ½ inhibition of kinase activity (IC50) is determined using Prism.

ROCK2 = ROCK2 (Homo sapiens (Human), UniProt O75116); assay: Invitrogen Z'-LYTE kinase assay, ROCK2 inhibition; format: biochemical; conditions: ROCK2 0.8 ug/mL, 12 uM ATP
Chain of ROCK2 (O75116 whole entry): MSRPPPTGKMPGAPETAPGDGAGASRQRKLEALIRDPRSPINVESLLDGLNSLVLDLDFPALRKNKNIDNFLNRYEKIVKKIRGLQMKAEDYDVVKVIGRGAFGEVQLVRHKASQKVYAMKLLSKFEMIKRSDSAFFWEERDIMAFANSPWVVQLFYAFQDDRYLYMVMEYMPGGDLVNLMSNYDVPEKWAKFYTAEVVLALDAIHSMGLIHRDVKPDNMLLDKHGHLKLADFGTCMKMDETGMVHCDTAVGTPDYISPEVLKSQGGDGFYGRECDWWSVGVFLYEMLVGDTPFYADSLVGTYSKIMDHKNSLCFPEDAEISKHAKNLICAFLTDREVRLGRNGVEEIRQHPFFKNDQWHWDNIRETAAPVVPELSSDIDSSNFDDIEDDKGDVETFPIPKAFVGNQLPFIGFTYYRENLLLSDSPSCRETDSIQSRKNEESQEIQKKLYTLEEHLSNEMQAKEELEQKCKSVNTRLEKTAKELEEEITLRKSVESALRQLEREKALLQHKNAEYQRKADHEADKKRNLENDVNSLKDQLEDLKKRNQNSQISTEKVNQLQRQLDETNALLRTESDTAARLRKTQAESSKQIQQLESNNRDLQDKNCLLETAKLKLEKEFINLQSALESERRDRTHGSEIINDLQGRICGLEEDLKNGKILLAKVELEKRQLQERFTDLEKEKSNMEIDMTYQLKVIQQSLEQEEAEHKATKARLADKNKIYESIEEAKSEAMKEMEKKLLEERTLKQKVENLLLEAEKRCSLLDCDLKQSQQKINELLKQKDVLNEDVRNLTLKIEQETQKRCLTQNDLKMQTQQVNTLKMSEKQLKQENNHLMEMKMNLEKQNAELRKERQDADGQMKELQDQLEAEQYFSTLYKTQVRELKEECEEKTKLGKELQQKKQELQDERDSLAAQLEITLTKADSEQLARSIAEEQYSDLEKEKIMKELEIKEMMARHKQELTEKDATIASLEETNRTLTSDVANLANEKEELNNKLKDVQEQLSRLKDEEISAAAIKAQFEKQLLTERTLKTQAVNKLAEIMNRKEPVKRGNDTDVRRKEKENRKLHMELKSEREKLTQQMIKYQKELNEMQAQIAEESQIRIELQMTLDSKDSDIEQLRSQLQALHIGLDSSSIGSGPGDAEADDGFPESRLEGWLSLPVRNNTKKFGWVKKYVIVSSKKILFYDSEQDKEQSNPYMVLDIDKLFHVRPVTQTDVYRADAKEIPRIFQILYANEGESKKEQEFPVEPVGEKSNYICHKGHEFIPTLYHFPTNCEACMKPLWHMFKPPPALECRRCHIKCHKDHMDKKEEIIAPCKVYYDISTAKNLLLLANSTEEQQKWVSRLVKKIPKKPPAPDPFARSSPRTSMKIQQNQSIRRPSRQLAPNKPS
Text: as §1

[2] = molecular target: binding of human VEGF with human VEGFR2 (Homo sapiens (Human), UniProt P35968); assay: ELISA ligand blocking, human VEGF / human VEGFR2
[3] = molecular target: VEGFR2 on MS1 murine endothelial cells (Mus musculus (Mouse), UniProt P35918); assay: binding to VEGFR2 on MS1 murine endothelial cells; format: cell-based
Chain of VEGFR2 on MS1 murine endothelial cells (P35918 20-1345): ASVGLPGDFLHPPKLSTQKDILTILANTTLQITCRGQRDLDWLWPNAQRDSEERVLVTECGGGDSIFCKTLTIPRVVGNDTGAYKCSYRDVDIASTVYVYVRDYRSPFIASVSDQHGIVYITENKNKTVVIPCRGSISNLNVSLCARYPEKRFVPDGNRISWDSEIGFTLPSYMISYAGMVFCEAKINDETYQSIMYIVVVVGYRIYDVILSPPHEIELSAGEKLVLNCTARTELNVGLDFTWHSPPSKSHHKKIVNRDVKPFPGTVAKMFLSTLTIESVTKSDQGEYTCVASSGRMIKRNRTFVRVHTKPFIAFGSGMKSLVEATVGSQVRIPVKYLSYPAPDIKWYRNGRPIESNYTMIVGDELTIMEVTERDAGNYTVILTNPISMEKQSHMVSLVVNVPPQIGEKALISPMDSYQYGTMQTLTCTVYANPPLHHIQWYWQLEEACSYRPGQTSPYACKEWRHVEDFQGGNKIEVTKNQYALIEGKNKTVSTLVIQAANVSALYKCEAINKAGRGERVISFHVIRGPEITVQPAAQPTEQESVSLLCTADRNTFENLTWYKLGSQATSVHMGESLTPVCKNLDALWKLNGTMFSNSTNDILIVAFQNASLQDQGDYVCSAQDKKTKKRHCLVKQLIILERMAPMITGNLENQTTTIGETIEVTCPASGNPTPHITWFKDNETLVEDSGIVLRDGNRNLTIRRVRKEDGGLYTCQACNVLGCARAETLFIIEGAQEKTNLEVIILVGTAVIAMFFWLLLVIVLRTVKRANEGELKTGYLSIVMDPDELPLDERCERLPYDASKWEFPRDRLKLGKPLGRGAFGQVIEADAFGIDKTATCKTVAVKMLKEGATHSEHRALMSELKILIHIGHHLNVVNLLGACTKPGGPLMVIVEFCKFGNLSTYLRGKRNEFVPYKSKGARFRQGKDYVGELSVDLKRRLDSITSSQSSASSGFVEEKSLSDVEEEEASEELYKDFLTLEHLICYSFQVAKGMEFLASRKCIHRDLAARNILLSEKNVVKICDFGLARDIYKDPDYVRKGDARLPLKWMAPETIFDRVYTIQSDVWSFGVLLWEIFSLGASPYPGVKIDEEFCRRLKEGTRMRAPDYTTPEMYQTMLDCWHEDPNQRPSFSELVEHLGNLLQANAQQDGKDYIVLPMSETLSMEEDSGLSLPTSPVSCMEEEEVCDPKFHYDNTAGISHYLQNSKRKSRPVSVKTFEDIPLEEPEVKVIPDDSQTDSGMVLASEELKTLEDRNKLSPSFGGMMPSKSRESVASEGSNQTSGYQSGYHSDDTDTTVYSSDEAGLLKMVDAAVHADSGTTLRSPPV

murine VEGFR2 [4] = molecular target: T1, murine VEGFR2 (Mus musculus (Mouse), UniProt P35918); assay: ELISA receptor binding, mVEGFR2
T1 sequence (P35918 20-1345): as above

rat VEGFR2 = rat VEGFR2 (Rattus norvegicus (Rat), UniProt O08775); assay: Biacore analysis of binding to rat VEGFR2; conditions: rat antigen
Chain of rat VEGFR2 (O08775 20-1343): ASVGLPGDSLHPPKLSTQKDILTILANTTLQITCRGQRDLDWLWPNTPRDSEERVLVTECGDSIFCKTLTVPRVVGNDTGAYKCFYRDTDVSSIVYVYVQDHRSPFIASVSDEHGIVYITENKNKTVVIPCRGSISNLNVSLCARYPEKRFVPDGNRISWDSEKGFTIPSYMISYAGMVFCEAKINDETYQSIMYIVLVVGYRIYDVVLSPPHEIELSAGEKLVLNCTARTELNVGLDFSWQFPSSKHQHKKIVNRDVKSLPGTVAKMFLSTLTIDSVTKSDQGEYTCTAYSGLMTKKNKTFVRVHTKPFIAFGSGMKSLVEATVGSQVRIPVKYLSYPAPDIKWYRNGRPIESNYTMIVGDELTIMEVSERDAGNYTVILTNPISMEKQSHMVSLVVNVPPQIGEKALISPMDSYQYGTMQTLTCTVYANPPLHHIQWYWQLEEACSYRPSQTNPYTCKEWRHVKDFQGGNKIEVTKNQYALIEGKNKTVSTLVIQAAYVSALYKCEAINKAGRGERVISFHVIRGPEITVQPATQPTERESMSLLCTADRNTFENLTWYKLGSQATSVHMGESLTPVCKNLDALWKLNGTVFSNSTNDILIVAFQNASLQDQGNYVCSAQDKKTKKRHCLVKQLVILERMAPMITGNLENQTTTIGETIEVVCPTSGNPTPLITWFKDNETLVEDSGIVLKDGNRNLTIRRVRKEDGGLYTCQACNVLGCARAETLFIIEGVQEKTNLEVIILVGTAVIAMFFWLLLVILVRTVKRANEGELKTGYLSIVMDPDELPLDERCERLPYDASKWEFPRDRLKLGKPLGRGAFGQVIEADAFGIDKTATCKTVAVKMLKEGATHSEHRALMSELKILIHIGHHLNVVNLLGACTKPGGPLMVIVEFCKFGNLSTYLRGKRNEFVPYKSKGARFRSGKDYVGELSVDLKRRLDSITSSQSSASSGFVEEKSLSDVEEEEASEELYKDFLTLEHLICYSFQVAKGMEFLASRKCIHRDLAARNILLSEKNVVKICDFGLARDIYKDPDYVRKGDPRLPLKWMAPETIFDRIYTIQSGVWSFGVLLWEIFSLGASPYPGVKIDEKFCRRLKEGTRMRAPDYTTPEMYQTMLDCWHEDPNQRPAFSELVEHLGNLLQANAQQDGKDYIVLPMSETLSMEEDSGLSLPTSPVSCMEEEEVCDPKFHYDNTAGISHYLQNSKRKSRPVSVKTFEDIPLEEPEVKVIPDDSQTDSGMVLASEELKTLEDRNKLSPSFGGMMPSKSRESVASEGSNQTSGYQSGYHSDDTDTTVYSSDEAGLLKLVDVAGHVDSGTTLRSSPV
Experimental: The binding constants of Mab 147 and Mab 149 as well as the parent Mab 160 for human, murine, and rat VEGFR2 were determined by Biacore analysis (Table 4).

[5] = molecular target: binding of murine VEGF with murine VEGFR2 (Mus musculus (Mouse), UniProt P35918); assay: ELISA ligand blocking, murine VEGF / murine VEGFR2
Chain of binding of murine VEGF with murine VEGFR2 (P35918 20-762): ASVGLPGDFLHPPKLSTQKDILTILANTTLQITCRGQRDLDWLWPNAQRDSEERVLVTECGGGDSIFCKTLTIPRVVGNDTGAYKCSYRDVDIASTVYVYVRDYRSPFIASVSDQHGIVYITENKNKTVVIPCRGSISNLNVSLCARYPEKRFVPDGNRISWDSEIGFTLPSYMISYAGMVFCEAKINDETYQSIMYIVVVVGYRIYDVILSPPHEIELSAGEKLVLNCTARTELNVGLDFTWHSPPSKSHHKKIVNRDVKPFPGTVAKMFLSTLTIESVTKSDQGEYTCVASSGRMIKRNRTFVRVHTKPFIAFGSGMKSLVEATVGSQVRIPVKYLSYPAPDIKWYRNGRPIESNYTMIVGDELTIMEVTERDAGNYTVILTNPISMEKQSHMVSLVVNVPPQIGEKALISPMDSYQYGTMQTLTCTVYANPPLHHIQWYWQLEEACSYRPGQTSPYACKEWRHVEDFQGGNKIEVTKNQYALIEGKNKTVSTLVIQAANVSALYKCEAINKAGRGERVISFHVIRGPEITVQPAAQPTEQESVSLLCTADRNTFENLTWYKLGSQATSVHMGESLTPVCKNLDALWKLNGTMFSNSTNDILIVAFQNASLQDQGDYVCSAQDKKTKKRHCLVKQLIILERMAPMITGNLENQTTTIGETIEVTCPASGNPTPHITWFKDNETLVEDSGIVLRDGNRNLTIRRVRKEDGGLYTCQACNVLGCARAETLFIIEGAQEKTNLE

human VEGFR2 [6] = molecular target: T2, human VEGFR2 (Homo sapiens (Human), UniProt P35968); assay: Biacore analysis of binding to human VEGFR2; conditions: human antigen
KDR-PAE cells [7] = assay: proliferation of KDR-PAE cells; format: cell-based, porcine
KDR-PAE cells [8] = assay: VEGF-induced migration of KDR-PAE cells; format: cell-based, porcine; conditions: VEGF gradient
Experimental: Migration of KDR-PAE cells was induced with a VEGF gradient (50 ng/ml VEGF (up), 100 ng/ml VEGF (low)).

[9] = system: phosphorylation of KDR and p44/42 in KDR-PAE cells; assay: VEGFR2-mediated signal transduction in KDR-PAE cells; format: cell-based, porcine
murine VEGFR2 [10] = molecular target: T1, murine VEGFR2; assay: Biacore analysis of binding to murine VEGFR2; conditions: murine antigen
[11] = molecular target: human VEGFR2 on HUVEC and KDR-PAE cells (Homo sapiens (Human), UniProt P35968); assay: binding to hVEGFR2 on HUVEC and KDR-PAE cells; format: cell-based
Text: Binding of Mab 147 to hVEGFR2 and mVEGFR2 expressed on cell membranes was also confirmed. […] Mab 147 also bound to mVEGFR expressed by MS1 murine endothelial cells (FIG. 8B).

[12] = system: phosphorylation of KDR and p44/42 in HUVEC; assay: VEGFR2-mediated signal transduction in HUVEC; format: cell-based, human
human VEGFR2 [13] = molecular target: T2, human VEGFR2; assay: ELISA receptor binding, hVEGFR2

Molecule: COc1ccc2c(c1)CN(c1nccc(Nc3ccc4[nH]ncc4c3)n1)C2 [Example 1, N-(2-(5-Methoxyisoindolin-2-yl)pyrimidin-4-yl)-1H-indazol-5-amine]
- IFN-γ secretion (CD4+ human T cells): not observed
- IL-2 secretion (CD4+ human T cells): not observed
- IL-17 secretion (CD4+ human T cells): dose-dependent; also recorded: significantly inhibited
- IL-21 secretion (CD4+ human T cells): inhibits; also recorded: significantly inhibited
- EAE paralysis / mean clinical score [1]: reduces paralysis
- EAE paralysis / mean clinical score ([1]; listed as compound 1): substantial improvement

Molecule: Clc1ccc2c(c1)CN(c1nccc(Nc3ccc4[nH]ncc4c3)n1)C2 [Example 10, N-(2-(5-Chloroisoindolin-2-yl)pyrimidin-4-yl)-1H-indazol-5-amine]
- IC50 (ROCK1): > 10 µM

Molecule: COc1ccc2c(c1)CCN(c1nccc(Nc3ccc4[nH]ncc4c3)n1)C2 [Example 11, N-(2-(6-Methoxy-3,4-dihydroisoquinolin-2(1H)-yl)pyrimidin-4-yl)-1H-indazol-5-amine]
- IC50 (ROCK1): > 10 µM

Molecule: COc1ccc2c(c1)CN(c1cc(Nc3ccc4[nH]ncc4c3)nc(C)n1)C2 [Example 14, N-(6-(5-Methoxyisoindolin-2-yl)-2-methylpyrimidin-4-yl)-1H-indazol-5-amine]
- IC50 (ROCK2): 0.13 to 0.18 µM
- IC50 (ROCK1): > 10 µM

Molecule: c1cc2c(cn1)CN(c1nccc(Nc3ccc4[nH]ncc4c3)n1)C2 [Example 15, N-(2-(1H-Pyrrolo[3,4-c]pyridin-2(3H)-yl)pyrimidin-4-yl)-1H-indazol-5-amine]
- IC50 (ROCK1): > 10 µM

Molecule: c1ccc2c(c1)CN(c1nc3c(c(Nc4ccc5[nH]ncc5c4)n1)COC3)C2 [Example 17, N-(1H-Indazol-5-yl)-2-(isoindolin-2-yl)-5,7-dihydrofuro[3,4-d]pyrimidin-4-amine]
- IC50 (ROCK1): > 10 µM

Molecule: COc1ccc2c(c1)CN(c1nccc(Nc3ccncc3)n1)C2 [Example 19, 2-(5-Methoxyisoindolin-2-yl)-N-(pyridin-4-yl)pyrimidin-4-amine]
- IC50 (ROCK2): > 10 µM
- IC50 (ROCK1): > 10 µM

Molecule: COc1ccc2c(c1)CN(c1nccc(Nc3ccc(-c4ccncc4)cc3)n1)C2 [Example 20, 2-(5-Methoxyisoindolin-2-yl)-N-(4-(pyridin-4-yl)phenyl)pyrimidin-4-amine]
- IC50 (ROCK1): > 10 µM

Molecule: COc1ccc2c(c1)CN(c1nc3c(c(Nc4ccc5[nH]ncc5c4)n1)COCC3)C2 [Example 21, N-(1H-Indazol-5-yl)-2-(5-methoxyisoindolin-2-yl)-7,8-dihydro-5H-pyrano[4,3-d]pyrimidin-4-amine]
- IC50 (ROCK2): 0.185 µM
- IC50 (ROCK1): > 10 µM

Molecule: COc1ccc2c(c1)CN(c1nc3c(c(Nc4ccc5[nH]ncc5c4)n1)CCNC3)C2 [Example 24, N-(1H-Indazol-5-yl)-2-(5-methoxyisoindolin-2-yl)-5,6,7,8-tetrahydropyrido[3,4-d]pyrimidin-4-amine]
- IC50 (ROCK1): 2.5 µM

Molecule: N#Cc1ccc2c(c1)CN(c1nccc(Nc3ccc4[nH]ncc4c3)n1)C2 [Example 26, 2-(4-((1H-Indazol-5-yl)amino)pyrimidin-2-yl)isoindoline-5-carbonitrile]
- IC50 (ROCK2): 0.123 µM
- IC50 (ROCK1): > 10 µM

Molecule: Fc1ccc2c(c1)CN(c1nc3c(c(Nc4ccc5[nH]ncc5c4)n1)COC3)C2 [Example 30, 2-(5-Fluoroisoindolin-2-yl)-N-(1H-indazol-5-yl)-5,7-dihydrofuro[3,4-d]pyrimidin-4-amine]
- IC50 (ROCK1): > 10 µM

Further lines, with some results ahead:

- IC50 (ROCK1): > 10 µM
Molecule: c1ccc2c(c1)CN(c1nccc(Nc3ccc4[nH]ncc4c3)n1)C2 [Example 2, N-(2-(Isoindolin-2-yl)pyrimidin-4-yl)-1H-indazol-5-amine]

- IC50 (ROCK1): > 10 µM
Molecule: COc1ccc2c(c1)CN(c1ccnc(Nc3ccc4[nH]ncc4c3)n1)C2 [Example 8, N-(4-(5-Methoxyisoindolin-2-yl)pyrimidin-2-yl)-1H-indazol-5-amine]

- IC50 (ROCK1): > 10 µM
Molecule: c1cc(Nc2ccc3[nH]ncc3c2)nc(N2CCc3sccc3C2)n1 [Example 12, N-(2-(6,7-Dihydrothieno[3,2-c]pyridin-5(4H)-yl)pyrimidin-4-yl)-1H-indazol-5-amine]

- IC50 (ROCK1): > 10 µM
Molecule: COc1ccc2c(c1)CN(c1cc(Nc3ccc4[nH]ncc4c3)ncn1)C2 [Example 13, N-(6-(5-Methoxyisoindolin-2-yl)pyrimidin-4-yl)-1H-indazol-5-amine]

- IC50 (ROCK2): > 0.01 µM
Molecule: COc1ccc2c(c1)CN(c1nc(C)c(C)c(Nc3ccc4[nH]ncc4c3)n1)C2 [Example 16, N-(2-(5-Methoxyisoindolin-2-yl)-5,6-dimethylpyrimidin-4-yl)-1H-indazol-5-amine]

- IC50 (ROCK2): 24.3 µM and 24 µM
Molecule: COc1ccc2c(c1)CN(c1nc3c(c(Nc4ccc5[nH]ncc5c4)n1)CNC3)C2 [Example 22, N-(1H-Indazol-5-yl)-2-(5-methoxyisoindolin-2-yl)-6,7-dihydro-5H-pyrrolo[3,4-d]pyrimidin-4-amine]

- IC50 (ROCK2): 0.13 µM
- IC50 (ROCK1): > 10 µM
Molecule: COc1ccc2c(c1)CN(c1nc3c(c(Nc4ccc5[nH]ncc5c4)n1)CCN(C)C3)C2 [Example 25, N-(1H-Indazol-5-yl)-2-(5-methoxyisoindolin-2-yl)-7-methyl-5,6,7,8-tetrahydropyrido[3,4-d]pyrimidin-4-amine]

- IC50 (ROCK2): 0.1 µM
- IC50 (ROCK1): 6.73 µM
Molecule: COCc1ccc2c(c1)CN(c1nccc(Nc3ccc4[nH]ncc4c3)n1)C2 [Example 27, N-(2-(5-(Methoxymethyl)isoindolin-2-yl)pyrimidin-4-yl)-1H-indazol-5-amine]

- IC50 (ROCK2): 0.88 µM
Molecule: Fc1cccc2c1CN(c1nccc(Nc3ccc4[nH]ncc4c3)n1)C2 [Example 29, N-(2-(4-Fluoroisoindolin-2-yl)pyrimidin-4-yl)-1H-indazol-5-amine]

- IC50 (ROCK2): 0.607 µM
- IC50 (ROCK1): > 10 µM
Molecule: COc1nc(N2Cc3ccccc3C2)nc(Nc2ccc3[nH]ncc3c2)c1OC [Example 32, N-(2-(Isoindolin-2-yl)-5,6-dimethoxypyrimidin-4-yl)-1H-indazol-5-amine]

- blocking of binding of human VEGF with human VEGFR2 [2]: blocks ligand binding
- binding to VEGFR2 on MS1 murine endothelial cells [3]: binds; also recorded: bound
- ka (rat VEGFR2): 6.45E+04
- kd (rat VEGFR2): 8.99E−04
- blocking of binding of murine VEGF with murine VEGFR2 [5]: blocks ligand binding
- ka (human VEGFR2 [6]): 1.13E+05
- kd (human VEGFR2 [6]): 2.82E−04
- ka (murine VEGFR2 [10]): 4.38E+04
- kd (murine VEGFR2 [10]): 1.28E−03
- binding to hVEGFR2 expressed on cell membranes [11]: confirmed
B1: Mab 147: affinity matured anti-VEGFR2 antibody derived from Mab 138; VH SEQ ID NO:200, VL SEQ ID NO:204 (antibody, V domains shown)
VH: EVQLLESGGGLVQPGGSLRLSCAASGFTFSWYVMGWVRQAPGKGLEWVSSIYPQGGATSYADSVKGRFTISRDNSKNTLYLQMNSLRAEDTAVYYCARGNYFDYWGQGTLVTVSS
VL: DIQMTQSPGTLSLSPGEGATLSCRASQSVSSNYFGWYQQKPGQAPRLLIYGASSRATGIPDRFSGSGSGTDFTLTISRLEPEDSAVYYCQQFDSLPLTFGGGTKVEIKR
modifications: Mutation of library member
- binding to murine VEGFR2 (murine VEGFR2 [4]): binds to both hVEGFR2 and mVEGFR2 with similar affinity
- proliferation of KDR-PAE cells (KDR-PAE cells [7]): inhibit
- VEGF-induced migration of KDR-PAE cells (KDR-PAE cells [8]): inhibiting
- phosphorylation of KDR and p44/42 [9]: inhibit
- phosphorylation of KDR and p44/42 ([9]; listed as Mab-147): reduced phosphorylation
- phosphorylation of KDR and p44/42 [12]: inhibit
- phosphorylation of KDR and p44/42 ([12]; listed as Mab-147): reduced phosphorylation
- binding to human VEGFR2 (human VEGFR2 [13]): binds to both hVEGFR2 and mVEGFR2 with similar affinity

- ka (rat VEGFR2): 3.32E+04
- kd (rat VEGFR2): 1.43E−03
- ka (human VEGFR2 [6]): 8.62E+04
- kd (human VEGFR2 [6]): 6.59E−04
- ka (murine VEGFR2 [10]): 2.29E+04
- kd (murine VEGFR2 [10]): 1.81E−03
B2: Mab 149: affinity matured anti-VEGFR2 antibody derived from Mab 138; VH SEQ ID NO:216, VL SEQ ID NO:220 (antibody, V domains shown)
VH: EVQLLESGGGLVQPGGSLRLSCAASGFTFSWYVMGWVRQAPGKGLEWVSSIYPSGGATNYADSVKGRFTISRDNSKNTLYLQMNSLRAEDTAVYYCARGNYLDYWGQGTLVTVSS
VL: DIQMTQSPGTLSLSPGEGATLSCRASQSVSSNYFGWYQQKPGQAPRLLIYGASSRATGIPDRFSGSGSGTDFTLTISRLEPEDSAVYYCQQFDSSPLSFGGGTKVEIKR
modifications: Mutated library sequence
